Measurements from patent US6825230B2, “Spiro and dispiro 1,2,4-trixolane antimalarials” (Medicines for Malaria Venture MMV, priority 2002, dated 2004).
Values after ≈ are worked out from the molar mass of the structure shown.

Tests used:
[1] = system: ANKA strain of P. berghei; test: Single dose STI in vivo screen in infected mice; design: species or system Plasmodium berghei; details: 10 mg/kg
P. berghei ANKA strain [2] = test: Prophylactic activity, single 100 mg/kg po at various times before infection; type: in vivo, Plasmodium berghei
P. berghei ANKA strain [3] = test: Divided 3x3 mg/kg and 3x1 mg/kg po doses in infected mice; type: in vivo, Plasmodium berghei
Outline: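 Male NMRI mice were infected i.v. with 2×10^7 P. berghei-parasitized erythrocytes on day 0, then dosed orally in SSV vehicle on days 1, 2 and 3 post-infection.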

[4] = system: chloroquine-resistant K1 strain of P. falciparum; test: In vitro antimalarial semiautomated microdilution assay ([3H]-hypoxanthine incorporation), K1 strain; type: cell-based, Plasmodium falciparum; details: Plasmodium falciparum; chloroquine-resistant K1 strain, 72 h incubation; read-out: IC50 (ng/ml) K1
Outline: (§1)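 Logit regression analysis yields the fifty percent inhibitory concentration. Compounds are tested by semiautomated microdilution on intraerythrocytic parasites drawn from asynchronous stock cultures, measuring [3H]-hypoxanthine incorporation.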

[5] = system: ANKA strain of Plasmodium berghei; test: Single dose ED50/ED90/ED99 determination in infected mice; type: in vivo
Outline: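 Moro SPF or NMRI mice (three per group) infected with P. berghei ANKA were dosed once on day 1 post-infection in SSV (0.5% CMC, 0.5% benzyl alcohol, 0.4% Tween 80, 0.9% NaCl). Parasitemia reduction was scored on day 3; ED values (mg/kg) came from nonlinear fitting.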

[6] = system: Schistosoma mansoni adult worms (49-day-old); test: Effect on adult schistosomes (49-day-old) in infected mice; type: in vivo
Experimental: Mice were infected with 100 Schistosoma mansoni cercariae on day 49 post-treatment. Each group was treated per os with OZ compounds at single doses of 200, 400, and 600 mg/kg. Untreated mice served as the control. All groups were killed 4 weeks after treatment and the liver and intestine were removed and separated. The liver and intestine were compressed and alive male and female worms could be seen and counted.

[7] = Pharmacokinetics in dogs (IV and oral dosing); details: in vivo, dog; for bioavailability: some values marked (V), not defined
Description: (§2) Artesunate is listed as a reference compound.

[8] = system: chloroquine-sensitive NF54 strain of P. falciparum; test: In vitro antimalarial semiautomated microdilution assay ([3H]-hypoxanthine incorporation), NF54 strain; type: cell-based, Plasmodium falciparum; details: Plasmodium falciparum; chloroquine-sensitive NF54 strain, 72 h incubation; read-out: IC50 (ng/ml) NF54
Outline: as §1

P. berghei ANKA strain [9] = test: Divided 3x10 mg/kg vs single 1x30 mg/kg po dose in infected mice; type: in vivo, Plasmodium berghei
[10] = Pharmacokinetics in rats (IV and oral dosing); details: rat, in vivo
Description: as §2

With `NC[C@H]1CC[C@]2(CC1)OOC1(O2)C2CC3CC(C2)CC1C3` (stereo partly drawn) [OZ209] the “Survival (days) 10 mg/kg po” value ([1]; single 10 mg/kg po in 3% ethanol and 7% Tween 80, untreated 6-7 days) was 9.5 days, the “Activity (%) 10 mg/kg po” value ([1]; single 10 mg/kg po in 3% ethanol and 7% Tween 80 on day 1 post-infection, percent reduction in parasitemia on day 3) was 99.94% and the “Survival (days) 10 mg/kg SSV po” value ([1]; single 10 mg/kg po in SSV, untreated 6-7 days) was 10.0 days. The “Activity (%) 10 mg/kg SSV po” value ([1]; single 10 mg/kg po in standard suspending vehicle (SSV) on day 1 post-infection, percent reduction in parasitemia on day 3) was 99.96%, the “Survival (days) 10 mg/kg sc” value ([1]; single 10 mg/kg sc in 3% ethanol and 7% Tween 80, untreated 6-7 days) was 12.5 days and the “Activity (%) 10 mg/kg sc” value ([1]; single 10 mg/kg sc in 3% ethanol and 7% Tween 80 on day 1 post-infection, percent reduction in parasitemia on day 3) was 99.97%. The “Prophylactic Activity (%) 72 h” value (P. berghei ANKA strain [2]; po, 100 mg/kg) was 99.92%, the “Duration of prophylactic protection” value (P. berghei ANKA strain [2]; single 100 mg/kg po) was 3 days and the “Prophylactic Activity (%) 24 h” value (P. berghei ANKA strain [2]; single 100 mg/kg po 24 h before infection, parasitemia reduction on day 3 post-infection) was 100%. The “Prophylactic Activity (%) 48 h” value (P. berghei ANKA strain [2]; single 100 mg/kg po 48 h before infection, parasitemia reduction on day 3 post-infection) was 99.9%, the “Prophylactic Activity (%) 0 h” value (P. berghei ANKA strain [2]; single 100 mg/kg po at 0 h, parasitemia reduction on day 3 post-infection) was 100% and the “Activity at the 3×3 mg/kg dose” value (P. berghei ANKA strain [3]; 3 mg/kg po (SSV) on days 1, 2, 3 post-infection, parasitemia reduction on day 4) was 100%. For the same compound, the “Survival” value (P. berghei ANKA strain [3]; 3 × 1 mg/kg p.o. SSV on days 1, 2, 3 post-infection) was 9.4 days, the “Survival” value (P. berghei ANKA strain [3]; 3 × 3 mg/kg p.o. SSV on days 1, 2, 3 post-infection) was 16.4 days and the “Activity (%)” value (P. berghei ANKA strain [3]; 3 × 3 mg/kg p.o. SSV on days 1, 2, 3 post-infection, percent reduction of parasitemia vs control on day 4) was 100%. For the same compound, the “Activity (%)” value (P. berghei ANKA strain [3]; po, 1 mg/kg, 96 h) was 99.51%, the Cures (P. berghei ANKA strain [3]; po, 3 mg/kg, 720 h) was 0\5 and the IC50 [4] was 0.21 ng/mL (≈ 0.716 nM). For the same compound, the ED50 ([5]; Plasmodium berghei, single dose po in SSV on day 1 post-infection, parasitemia day 3, nonlinear fitting, read-out: ED50) was 0.55 mg/kg, the “ED90” value ([5]; po) was 1.4 mg/kg and the “ED99” value ([5]; single dose po in SSV on day 1 post-infection, parasitemia day 3, nonlinear fitting) was 3.0 mg/kg. The “% reduction of adult worms growth at day 49 after per os application of 200 mg/kg, TWR (%)” value ([6]; single 200 mg/kg per os, 49-day-old adults, total worm reduction rate) was 39%, the “Adult worms day 49, per os 200 mg/kg, DEAD WORM (%)” value ([6]; single 200 mg/kg per os, percentage of dead worm in the liver) was 34% and the “% reduction of adult worms growth at day 49 after per os application of 400 mg/kg, TWR (%)” value ([6]; single 400 mg/kg per os, 49-day-old adults, total worm reduction rate) was 16%. The “Adult worms day 49, per os 400 mg/kg, DEAD WORM (%)” value ([6]; single 400 mg/kg per os, percentage of dead worm in the liver) was 28%, the “% reduction of adult worms growth at day 49 after per os application of 600 mg/kg, TWR (%)” value ([6]; single 600 mg/kg per os, 49-day-old adults, total worm reduction rate) was 41/ % and the “Adult worms day 49, per os 600 mg/kg, DEAD WORM (%)” value ([6]; single 600 mg/kg per os, percentage of dead worm in the liver) was 21++ %. It also gave a half-life ([7]; IV 10 mg/kg) of 3.05 h, a half-life ([7]; oral 10 mg/kg) of 2.12 h and a bioavailability ([7]; oral 10 mg/kg, read-out: Dog Oral Bioavailability 10 mg/kg) of 24.5%. For the same compound, the bioavailability ([7]; oral 25 mg/kg, read-out: Dog Oral Bioavailability 25 mg/kg) was 15.9%, the IC50 [8] was 0.32 ng/mL (≈ 1.09 nM) and the “Survival (days) 3 × 10 mg/kg p.o. SSV” value (P. berghei ANKA strain [9]; 10 mg/kg po on days 1, 2, 3 post-infection) was greater than 30 days. For the same compound, the “Activity (%) 3 × 10 mg/kg p.o. SSV” value (P. berghei ANKA strain [9]; po, 10 mg/kg, 96 h) was 100%, the “Cures 3 × 10 mg/kg p.o. SSV” value (P. berghei ANKA strain [9]; po, 10 mg/kg, 720 h) was 3\3 and the “Activity (%) 1 × 30 mg/kg p.o. SSV” value (P. berghei ANKA strain [9]; po, 30 mg/kg) was 100%. For the same compound, the “Cures 1 × 30 mg/kg p.o. SSV” value (P. berghei ANKA strain [9]; po, 30 mg/kg, 720 h) was 0/5, the “Survival (days) 1 × 30 mg/kg p.o. SSV” value (P. berghei ANKA strain [9]; single 30 mg/kg po on day 1 post-infection) was greater than 30 days and the half-life ([10]; iv, 10 mg/kg) was 2.5 h. It also gave a bioavailability ([10]; po, 10 mg/kg) of 12.4%, a bioavailability ([10]; po, 25 mg/kg) of 22.4% and a half-life ([10]; po, 25 mg/kg) of 1.69 h.
